Where “and” joins values, the source holds several entries; their conditions need not be identical. Equal entries are not always repeated.
Assays:
HCT116 [1] = assay: SIA, collagen I invasion; format: cell-based; conditions: Homo sapiens, HCT-116, 100 ng/ml bFGF
Method: (§1) 1000—2500 cells/well in 100 μl were seeded in 96 well Corning® Spheroid microplate (CLS4520, Sigma-Aldrich) or in cell-repellent 96 well microplate (650,790, Greiner Bio-one). SIA and analysis was performed as described before. In brief: After spheroid formation (24 – 72 h after seeding), 70 µl medium was removed and replaced with the collagen mixture (2.5 mg/ml Pure Col Collagen I (Advanced Biomatrix)), DMEM 1x (from 10 × stock, Sigma, D2429) and 0.4% Sodium bicarbonate (Sigma, S8761)), resulting in a final collagen concentration of 1.75 mg/ml. Embedded spheroids were stimulated with bFGF (100 ng/ml if not otherwise stated), HGF (30 ng /ml) or EGF (20 ng/ml) and distance of invaded cells quantified 24 – 48 h after embedding. Compounds and BGJ398 were added in Dimethylsulfoxid (DMSO) and corresponding DMSO concentrations were used in control samples.

M059K = assay: SIA, collagen I invasion; format: cell-based; conditions: Homo sapiens, 100 ng/ml bFGF
Method: as §1

DAOY siFRS2 cells = assay: SIA, bFGF-induced collagen I invasion in FRS2-depleted cells; format: cell-based, human
Method: as §1
(§2) siFRS2 in DAOY cells: 50,000 cells/well in 2 ml medium were seeded in 6 well plates and incubated at 37 °C, 5% CO2. The following day cells were transfected with 10 nM siRNA (5 nM Silencer Select, 5 nM Stealth RNAi siRNA) using Lipofectamin RNAiMAX Transfection Reagent (13,778,075; Invitrogen) and Opti-MEM® medium (15,392,402; Gibco). After 6 h, the medium was exchanged with fresh complete medium and further processed for the SIA protocol.

DAOY FRS2-FLAG cells = assay: SIA, bFGF-induced collagen I invasion in FRS2-FLAG overexpressing cells; format: cell-based; conditions: Homo sapiens
Method: as §1
Lentiviral construct pLV[Exp]-hPGK > hFRS2[NM_001278357.1](ns)*/3xFLAG:P2A:Puro was ordered from VectorBuilder (Santa Clara, CA, USA). A FLAG-tag ([…]) was fused to the C-terminus of FRS2. Lentiviral particles were produced by transfection of HEK-293 T cells with transfer plasmids, psPAX2 (#12,260, Addgene) and pCMV-VSV-G plasmid (#8454, Addgene) in a ratio of 5:3:2 using polyethlenimine (24,765–2. Polysciences). Virus supernatant was harvested 30 h post transfection and filtered. […]

[2] = In vivo PK of 7 (30, 100, 200 mg/kg PO), plasma and liver exposure; set-up: species or system ICR mice; conditions: both sexes, ICR, mouse, plasma, 0.5 h after administration, read-out: plasma concentration reached
Method: In vivo PK studies were performed by Pharmacology Discovery Services Taiwan (New Taipei City, Taiwan). 7 (30, 100, and 200 mg/kg, PO) was further administered to groups of 2 male and 2 female (23 ± 3 g) satellite ICR mice in PK study; the plasma and liver samples were harvested at 0.5 h after administration. In addition, one additional group was dosed at 30 mg/kg and the plasma samples were harvested at 1 and 2 h(s) after the treatment. The body and liver weights were recorded. The exposure levels (ng/ml or ng/g) of 7 in plasma and liver samples were then determined by Liquid Chromatograph Tandem Mass Spectrometer (LC–MS/MS), and the plasma: liver ratios were calculated.

pFRS2Y436 = assay: IHC of pFRS2Y436 in SKOV3 flank tumor samples; format: in vivo, mice; conditions: SKOV3 model; end of treatment
Method: IHC of tumor sections was performed by Sophistolab (Muttenz, Switzerland) on a Lecia BondMax instrument using Refine HRP-Kits (Leica DS9800). All buffer-solutions were purchased from Lecia Microsystems Newcastle, Ltd and used according to the manufacturer’s guidelines. Paraffin-slides were de-waxed, pre-treated and incubated as follows: ER-solution 2 for 10 min at 95 °C, ER-solution 2 for 20 min at 100 °C and ER-solution 2 for 30 min at 100 °C. pFRS2; Rabbit anti-Phospho FRS2 (PhosphoY 436, Abcam Limited; ab193363), dilution 1:150; phospho-p44/42 MAPK (Erk1/2Thr202/Tyr204) Rabbit mAb (Cell Signaling Technology #4370), dilution 1:1600. The IHC images were captured digitally using a Nikon Epifluorescence Eclipse Ti2 equipped with a Nikon DS-Ri2 color and a Nikon DS-Qi2 monochrome camera.

RT-112 = assay: SIA, collagen I invasion; format: cell-based, human
Method: as §1

DAOY siCTL cells = assay: SIA, bFGF-induced collagen I invasion in control siRNA cells; format: cell-based; conditions: Homo sapiens
Method: as §1, §2

HCT116 [3] = assay: Boyden chamber transwell migration assay; format: cell-based, human; conditions: 2.5, 5 or 10 µM, 48 h
Method: (§3) Transwells with 5 μm pore size (83.3932.500; Sarstedt) were coated with 50 µl of 0.06 μg/μl Pure Col Collagen I (5005; Advanced BioMatrix) dissolved in 100% EtOH for a final concentration of 10 μg/cm^2. 10,000 – 15,000 cells were resuspended in serum-free medium or serum-free medium containing the appropriate treatment and seeded in the upper chamber of a 24 well plate containing the coated transwell. The lower chamber was filled with either serum-free medium or serum-free medium with bFGF (25 ng/ml). Transwell migration was allowed for 24 h (DMS114) or 48 h (HCT116) at 37 °C, 5% CO2. Inserts were washed twice with PBS and the remaining non-invading cells on the upper surface of the membrane were removed using a cotton swab. The cells were fixed in 4% paraformaldehyde (28908; Thermo Fisher Scientific) in PBS for 5 min at RT. Fixed cells were washed twice with PBS and stained with DAPI for 15 min at RT. Inserts were washed three times in PBS before images of DAPI-stained nuclei were acquired using a widefield Nikon Ti2 microscope at 40 × magnification. Nuclei were counted on the membrane areas using ImageJ software and plotted on Prism 9 software (GraphPad).

DMS114 = assay: Boyden chamber transwell migration assay; format: cell-based, human; conditions: 24 h
Method: as §3

O=[N+]([O-])c1c(Cl)cc(O)c2c1C1C=CCC1C(c1ccc(Cl)cc1)N2 (stereo not drawn) [Compound 7]
EC50 (HCT116 [1]): 0.416 µM
EC50 (M059K): 3.28 µM
IC50 (DAOY siFRS2 cells; Homo sapiens, DAOY siFRS2 (reduced FRS2)): 7.96 µM
increase of IC50 in cells with reduced FRS2 compared to control (DAOY siFRS2 cells; siFRS2 vs siCTL): more than 2.5 fold
IC50 (DAOY FRS2-FLAG cells): 4.16 µM
concentration at 0.5 h [2]: 10000 ng/mL and > 20 µM
pFRS2 Y436 in tumor tissues by IHC (result in words) (pFRS2Y436): No clear difference in pFRS2 Y436
EC50 (RT-112; Homo sapiens, RT-112): 1.06 µM
basal and ligand-induced collagen I invasion (result in words) (RT-112; RT-112 (FGFR3-TACC3 fusion)): reduced both basal and ligand-induced collagen I invasion
IC50 (DAOY siCTL cells): 3.01 µM
basal and bFGF-increased transwell migration (result in words) (HCT116 [3]): abolished
concentration at which significant reduction of transwell migration was observed (DMS114): 10 µM

— PMC10060354, “Discovery of a small molecule ligand of FRS2 that inhibits invasion and tumor growth” (Cellular Oncology, 2022)
